Assay results published in patent publication US7071334B2, “6-(2-chloro-6-fluoro-phenyl)-triazolopyrimidines” (priority 2001, dated 2006).

Legend:
Assay type in all cases: in vivo
Pyrenophora teres = assay: Comparison Test 2: Control of net blotch on barley; settings: barley treated with 250 ppm, inoculated next day, assessed after 6 days; untreated 100%
Alternaria solani = assay: Comparison Test 1: Fungicidal control of early blight on tomatoes; settings: another trial, tomato plants treated with 16 ppm; untreated 90%
Sphaerotheca fuliginea = assay: Comparison Test 5: Protective control of powdery mildew on cucumber; settings: cucumber seedlings treated with 16 ppm, inoculated next day, assessed after 8 days; untreated 100%
Description: Cucumber seedlings of the variety “Chinesische Schlange” were grown in pots to the 2 leaf stage. The plants were then sprayed to run-off with an aqueous suspension, containing the concentration of active ingredient as described below, prepared from a stock solution containing 10% of the active ingredient, 85% cyclohexanone and 5% emulsifier. The next day the treated plants were inoculated with an aqueous spore suspension of cucumber powdery mildew (Sphaerotheca fuliginea). Then the trial plants were cultivated in a greenhouse at temperatures between 20 and 24° C. and a relative humidity between 60 and 80.%. After 8 days the extent of fungal attack on the leaves was visually assessed as % diseased leaf area.

Septoria tritici = assay: Comparison Trial 3: Fungicidal control of leaf blotch on wheat (protective); settings: wheat seedlings treated with 63 ppm, inoculated following day, assessed after 2 weeks; untreated 90%

Structure (SMILES): COc1nc2ncnn2c(C2CCCCC2)c1-c1c(F)cccc1Cl [C]
- infection (% diseased leaf area) (Pyrenophora teres): 100%

Structure (SMILES): N#Cc1nc2ncnn2c(C2CCCCC2)c1-c1c(F)cccc1Cl [D]
- infection (% diseased leaf area) (Pyrenophora teres): 100%

Structure (SMILES): Cc1nc2ncnn2c(N2CCC(C)CC2)c1-c1c(F)cccc1Cl [E]
- infection (% diseased leaf area) (Alternaria solani): 30%
- infection (% diseased leaf area) (Sphaerotheca fuliginea): 90%

Structure (SMILES): CCN(CC)c1c(-c2c(F)cccc2Cl)c(C#N)nc2ncnn12 [I-5]
- infection (% diseased leaf area) (Septoria tritici): no infection
